Read-outs that look alike come from different tables or passages of the source.
Columns and labels:
S. aureus = test: Antibiotic assay (resazurin, Example 1), S. aureus strains of Table 3; type: cell-based, Staphylococcus aureus; conditions: for IC50: read-out: IC50
Text: (§1) Bacteria Strain. […] The MRSA were obtained as further described below.
(§2) Antibiotic agents. Cyprofloxacin and erythromycin were provided by Sigma-Aldrich. Gentamicin sulfate and vancomycin hydrochloride were provided by Calbiochem.

Streptococcus pneumoniae = test: Antibiotic assay (resazurin, Example 1), Streptococcus pneumoniae; type: cell-based; conditions: for IC50: read-out: IC50
Method: as §1, §2
(§3) Five additional strains were tested: Streptococcus pneumoniae, Streptococcus agalactiae, Streptococcus pyogenes, Enterococcus faecalis and Corynebacterium jeikeium.

Enterococcus faecalis = test: Antibiotic assay (resazurin, Example 1), Enterococcus faecalis; type: cell-based; conditions: for IC50: read-out: IC50
Method: as §1, §2, §3

Corynebacterium jeikeium = test: Antibiotic assay (resazurin, Example 1), Corynebacterium jeikeium; type: cell-based; conditions: Coryne. jeikeium 14139
Method: as §1, §2, §3

Streptococcus pyogenes = test: Antibiotic assay (resazurin, Example 1), Streptococcus pyogenes; type: cell-based; conditions: for IC50: read-out: IC50
Method: as §1, §2, §3

Streptococcus agalactiae = test: Antibiotic assay (resazurin, Example 1), Streptococcus agalactiae; type: cell-based; conditions: for IC50: read-out: IC50
Method: as §1, §2, §3

[1] = system: S. aureus wild type strain (ATCC25923); test: Antibiotic assay of extracts and fractions (resazurin, Example 6), S. aureus wild type; type: cell-based, Staphylococcus aureus; conditions: S. aureus WT
Text: (§4) Antibiotic agents. Gentamicin sulfate was provided by Calbiochem.

E. coli (ATCC25922) = test: Antibiotic assay of extracts and fractions (resazurin, Example 6), E. coli; type: cell-based
Text: as §4

MRSAs (1, 2 and 3) = test: Antibiotic assay of extracts and fractions (resazurin, Example 6), MRSA 1, 2 and 3; type: cell-based, Staphylococcus aureus
Text: as §4

S. epidermidis = test: Antibiotic assay (resazurin, Example 1), S. epidermidis strains
Method: The antibiotic assays were performed in 96-well plates (BD Falcon). The bacteria strains were inoculated in Nutrient Broth (BD) for the gram negative bacteria and Tryptic soy broth (BD) with 10% of defibrinated sheep blood (PML microbiological) for gram positive strain. All bacteria strains were dosed by spectrophotometry at 660 nm where 1 D.O=2×10^8 bacteria/mL. All bacteria were plated in their respective broth at a concentration of 450 000 bacteria/mL.
Compounds I, II and III were diluted in methanol and the above-noted antibiotic agents were diluted in water. The solvent concentration was 0.25%, which was not toxic for the bacteria. Compounds I, II and III and the above-noted antibiotic agents were tested at 8 different concentrations.
Each well contained: 100 μL of bacteria, 50 μL of the compounds tested (compound I, II, III or the above-noted antibiotic agent) and 50 μL of a 4% resazurin (Sigma) solution. The plates were incubated at 37° C. for 5 h. The fluorescence was read using a Fluoroskan Ascent™ FL (thermo) using an excitation wavelength of 530 nm and an emission wavelength of 590 nm.
Two different strains of Staphylococcus were tested, namely the S. epidermidis and the S. aureus strains.

Q: Gentamicin sulfate [reference compound] was tested. Which “Minimum Inhibitory Concentration (MIC)” value (S. aureus; S. aureus 14094) did it give?
A: (0.04) μM

Q: What about the IC50 (S. aureus; S. aureus 14094) of the same substance?
A: < 6 nM

Q: And the “Minimum Inhibitory Concentration (MIC)” value (S. aureus; S. aureus 14108)?
A: (0.05) μM

Q: What about the IC50 (S. aureus; S. aureus 14108) of the same substance?
A: 16 ± 3 nM

Q: What about the “Minimum Inhibitory Concentration (MIC)” value (S. aureus; S. aureus 14118) of the same substance?
A: (0.02) μM

Q: And the IC50 (S. aureus; S. aureus 14118)?
A: 8 ± 1 nM

Q: What about the “Minimum Inhibitory Concentration (MIC)” value (S. aureus; S. aureus 14154) of the same substance?
A: (0.04) μM

Q: What about the IC50 (S. aureus; S. aureus 14154) of the same substance?
A: < 16 nM

Q: What about the “Minimum Inhibitory Concentration (MIC)” value (Streptococcus pneumoniae; Strep. pneumoniae 14070) of the same substance?
A: (>20) μM

Q: And the IC50 (Streptococcus pneumoniae; Strep. pneumoniae 14070)?
A: 4000 ± 2000 nM

Q: And the “Minimum Inhibitory Concentration (MIC)” value (Streptococcus pneumoniae; Strep. pneumoniae 14112)?
A: (>20) μM

Q: What about the IC50 (Streptococcus pneumoniae; Strep. pneumoniae 14112) of the same substance?
A: > 20000 nM

Q: What about the “Minimum Inhibitory Concentration (MIC)” value (Streptococcus pneumoniae; Strep. pneumoniae 14138) of the same substance?
A: (>20) μM

Q: What about the IC50 (Streptococcus pneumoniae; Strep. pneumoniae 14138) of the same substance?
A: > 20000 nM

Q: What about the “Minimum Inhibitory Concentration (MIC)” value (Streptococcus pneumoniae; Strep. pneumoniae 14144) of the same substance?
A: (>20) μM

Q: What about the IC50 (Streptococcus pneumoniae; Strep. pneumoniae 14144) of the same substance?
A: > 20000 nM

Q: What about the “Minimum Inhibitory Concentration (MIC)” value (Streptococcus pneumoniae; Strep. pneumoniae 14148) of the same substance?
A: (>20) μM

Q: What about the IC50 (Streptococcus pneumoniae; Strep. pneumoniae 14148) of the same substance?
A: > 20000 nM

Q: And the “Minimum Inhibitory Concentration (MIC)” value (Enterococcus faecalis; Ent. Faecalis 14078)?
A: (>20) μM

Q: What about the IC50 (Enterococcus faecalis; Ent. Faecalis 14078) of the same substance?
A: 11000 ± 1000 nM

Q: And the “Minimum Inhibitory Concentration (MIC)” value (Enterococcus faecalis; Ent. Faecalis 14115)?
A: (>20) μM

Q: What about the IC50 (Enterococcus faecalis; Ent. Faecalis 14115) of the same substance?
A: > 20000 nM

Q: What about the “Minimum Inhibitory Concentration (MIC)” value (Corynebacterium jeikeium) of the same substance?
A: (9.1) μM

Q: What about the IC50 (Corynebacterium jeikeium; read-out: IC50) of the same substance?
A: 920 ± 70 nM

Q: What about the “Minimum Inhibitory Concentration (MIC)” value (Streptococcus pyogenes; Strep. pyogenes 14149) of the same substance?
A: (>20) μM

Q: What about the IC50 (Streptococcus pyogenes; Strep. pyogenes 14149) of the same substance?
A: > 20000 nM

Q: What about the “Minimum Inhibitory Concentration (MIC)” value (Streptococcus pyogenes; Strep. pyogenes 14152) of the same substance?
A: (>20) μM

Q: And the IC50 (Streptococcus pyogenes; Strep. pyogenes 14152)?
A: > 20000 nM

Q: And the “Minimum Inhibitory Concentration (MIC)” value (Streptococcus agalactiae; Strep. agalactiae 14150)?
A: (>20) μM

Q: What about the IC50 (Streptococcus agalactiae; Strep. agalactiae 14150) of the same substance?
A: > 20000 nM

Q: And the “Minimum Inhibitory Concentration (MIC)” value (Streptococcus agalactiae; Strep. agalactiae 14151)?
A: (>20) μM

Q: And the IC50 (Streptococcus agalactiae; Strep. agalactiae 14151)?
A: > 20000 nM

Q: What about the “Minimum Inhibitory Concentration (MIC)” value (Streptococcus agalactiae; Strep. agalactiae 14153) of the same substance?
A: (>20) μM

Q: What about the IC50 (Streptococcus agalactiae; Strep. agalactiae 14153) of the same substance?
A: > 20000 nM

Q: What about the IC50 [1] of the same substance?
A: <5 ng/mL

Q: What about the MIC [1] of the same substance?
A: <5 ng/mL

Q: And the IC50 (E. coli (ATCC25922))?
A: 9 ± 1 ng/mL

Q: And the MIC (E. coli (ATCC25922))?
A: 19 ng/mL

Q: And the IC50 (MRSAs (1, 2 and 3); MRSA 1)?
A: <5 ng/mL

Q: And the MIC (MRSAs (1, 2 and 3); MRSA 1)?
A: <5 ng/mL

Q: What about the IC50 (MRSAs (1, 2 and 3); MRSA 2) of the same substance?
A: <5 ng/mL

Q: And the MIC (MRSAs (1, 2 and 3); MRSA 2)?
A: <5 ng/mL

Q: What about the IC50 (MRSAs (1, 2 and 3); MRSA 3) of the same substance?
A: 6 ± 0.4 ng/mL

Q: And the MIC (MRSAs (1, 2 and 3); MRSA 3)?
A: 19 ng/mL

Q: What about the IC50 (S. epidermidis; S. epidermidis 14069) of the same substance?
A: < 6 nM

Q: And the “Minimum Inhibitory Concentration (MIC)” value (S. epidermidis; S. epidermidis 14069)?
A: (2.51) μM

Q: And the IC50 (S. epidermidis; S. epidermidis 14085)?
A: < 6 nM

Q: And the “Minimum Inhibitory Concentration (MIC)” value (S. epidermidis; S. epidermidis 14085)?
A: (1.19) μM

Q: And the IC50 (S. epidermidis; S. epidermidis 14093)?
A: < 6 nM

Q: What about the “Minimum Inhibitory Concentration (MIC)” value (S. epidermidis; S. epidermidis 14093) of the same substance?
A: (1.25) μM

Q: What about the IC50 (S. epidermidis; S. epidermidis 14134) of the same substance?
A: 130 ± 10 nM

Q: And the “Minimum Inhibitory Concentration (MIC)” value (S. epidermidis; S. epidermidis 14134)?
A: (0.8) μM

Q: What about the IC50 (S. epidermidis; S. epidermidis 14143) of the same substance?
A: 200 ± 30 nM

Q: What about the “Minimum Inhibitory Concentration (MIC)” value (S. epidermidis; S. epidermidis 14143) of the same substance?
A: (>2) μM

From US9499509B2, “Dihydrochalcone derivatives and their use as antibiotic agents” (UNIVERSITÉ DU QUÉBEC À CHICOUTIMI, priority 2012, dated 2016)
